According to article PMC12736791, “Co-Amorphous Systems Based on Dihydroquercetin and L-Lysine: Synthesis and Evaluation” (Pharmaceutics, 2025):
In brackets after ≈: the same amount, converted by molar mass. Read-outs that look alike come from different tables or passages of the source. One block for each compound: values may come before it.

Columns and labels:
HEK293 cells = experiment: Cytotoxicity assay (CCK-8), HEK293; format: cell-based, human; details: HEK293, 24 h
Method: (§1) The cells were cultured in a medium containing DMEM:FBS:MEM:P/S in a ratio of 88:10:1:1 for Caco-2 (immortalized human colorectal adenocarcinoma) cells, and DMEM:FBS:P/S in a ratio of 89:10:1 for HUVEC (Human umbilical vein endothelial cells), 3T3 (mouse embryonic fibroblasts), and HEK293 (immortalized human embryonic kidney) cell lines. The cell cultures were maintained in 100 mm diameter Petri dishes within a CelMate® CO2 Incubator (Esco Lifesciences Group, Singapore) at 37 °C in an atmosphere containing 5% carbon dioxide and a relative humidity of 95%. The culture medium was refreshed every 24 h.
(§2) To determine cell concentration, 1.0 mL of a trypsin solution containing EDTA, pre-warmed to 37 °C, was added to a Petri dish and incubated for up to 5 min. […] Subsequently, 100 µL of the solution was introduced into the Neubauer chamber XB.K.25 (QUIJING, Shanghai, China), and the concentration (cells/mL) was calculated using the following formula:(1) C=Ncell/Nsquares×[…], where Ncell represents the number of cells counted in the Neubauer chamber field and Nsquares represents the number of squares in the Neubauer chamber used for concentration calculation. […]
(§3) The resulting solutions were analyzed on a microplate spectrophotometer Eon (BioTek, Winooski, VT, USA) at the maximum absorption of the reduced form of CCK-8, measured at 450 nm. […]

[1] = design: method as in earlier work; details: water, room temperature; European Pharmacopoeia 11.5; cited from earlier work
Caco-2 cells = experiment: Cytotoxicity assay (CCK-8), Caco-2; format: cell-based, human; details: Caco-2, 24 h
Method: as §1, §2, §3

HUVEC cells = experiment: Cytotoxicity assay (CCK-8), HUVEC; format: cell-based, human; details: 24 h
Method: as §1, §2, §3

[2] = Solubility studies, pharmacopoeial descriptive terms; format: physicochemical; details: in water at room temperature
Method: The analysis was performed in accordance with the pharmacopoeial monograph of the State Pharmacopoeia of the Russian Federation XV, which is equivalent to the terms of the Pharmacopoeia of the Eurasian Economic Union and the European Pharmacopeia 11.5 at ambient conditions.
A measured amount of solvent was added to the suspension of the substance, and the mixture was continuously shaken for 1 min and placed in a thermostat set at a temperature of 24.5–25.5 °C for 15 min. If the substance had not completely dissolved, the shaking process was repeated for another minute, and the solution was kept in the thermostat for another 15 min period at the same temperature.

3T3 cells = experiment: Cytotoxicity assay (CCK-8), 3T3; format: cell-based, mouse
Method: as §1, §2, §3

[3] = design: method as in PMID 38139995; details: unmodified flavonoid; cited from earlier work

Solubility (pharmacopoeial descriptive term) [2]: very slightly soluble
SMILES: O=C1c2c(O)cc(O)cc2OC(c2ccc(O)c(O)c2)C1O (centres unmarked) [DHQraw, 2,3-dihydro-3,5,7-trihydroxy-2-(3,4-dihydroxyphenyl)-4H-1-benzopyran-4-one]
IC50 (HEK293 cells; Homo sapiens, read-out: IC50): 39 µg/mL (≈ 128 µM) | Solubility (pharmacopoeial descriptive term) [1]: very slightly soluble | IC50 (Caco-2 cells; Homo sapiens, read-out: IC50): 65 µg/mL | IC50 (HUVEC cells; Homo sapiens, read-out: IC50): 88 µg/mL (≈ 289 µM) | IC50 (3T3 cells; Mus musculus, NIH3T3, 3T3, 24 h, read-out: IC50): 96 µg/mL (≈ 316 µM)

SMILES: O=c1c(-c2ccc(O)cc2)coc2cc(O)cc(O)c12 [genistein]
Solubility of genistein [3]: 0.05 ± 0.01 µg/mL

SMILES: NCCCC[C@H](N)C(=O)O [LYSlyo]
IC50 (HEK293 cells): 1490 µg/mL (≈ 10200 µM) | IC50 (Caco-2 cells): 538 µg/mL | IC50 (HUVEC cells): 826 µg/mL (≈ 5650 µM) | IC50 (3T3 cells; 3T3, 24 h): above the maximum concentration
